Results taken from ChEMBL document CHEMBL6078671, “Synthesis of aromatic glycoconjugates as anti-fungal agents against Candida spp. and assessment of their covalent crosslinking capabilities” (2025).
Values after ≈ are worked out from the molar mass of the structure shown.

Legend:
Format in all cases: functional
Candida albicans = test: Fungicidal activity against Candida albicans ATCC 10231 incubated for 24 hrs followed by replacement of medium without compound measured after 48 hrs
Candida parapsilosis = test: Fungicidal activity against Candida parapsilosis ATCC 22019 incubated for 24 hrs followed by replacement of medium without compound measured after 48 hrs; settings: Lodderomyces parapsilosis
Nakaseomyces glabratus = test: Fungicidal activity against Candida glabrata ATCC 90030 incubated for 24 hrs followed by replacement of medium without compound measured after 48 hrs
[1] = system: Meyerozyma guilliermondii; test: Fungicidal activity against Candida guilliermondii C94 incubated for 24 hrs followed by replacement of medium without compound measured after 48 hrs
Clavispora lusitaniae = test: Fungicidal activity against Candida lusitaniae C18 incubated for 24 hrs followed by replacement of medium without compound measured after 48 hrs
[Candida] auris = Fungicidal activity against Candida auris ATCC CMYA-5001 incubated for 24 hrs followed by replacement of medium without compound measured after 48 hrs; settings: Candidozyma auris

C=CC(=O)Nc1cc(C(=O)NCc2cn([C@H]3O[C@@H](C)[C@@H](O)[C@@H](O)[C@@H]3O)nn2)cc(C(=O)NCc2cn([C@H]3O[C@@H](C)[C@@H](O)[C@H](O)[C@@H]3O)nn2)c1
MFC (Candida albicans): > 10000 µg/mL
MFC (Candida parapsilosis): > 10000 µg/mL
MFC (Nakaseomyces glabratus): > 10000 µg/mL
MFC [1]: > 10000 µg/mL
MFC (Clavispora lusitaniae): > 10000 µg/mL
MFC ([Candida] auris): > 10000 µg/mL

C=CS(=O)(=O)Nc1cc(C(=O)NCc2cn([C@@H]3O[C@H](CO)[C@H](O)[C@H](O)[C@H]3O)nn2)cc(C(=O)NCc2cn([C@@H]3O[C@H](CO)[C@H](O)[C@@H](O)[C@@H]3O)nn2)c1
MFC (Candida albicans): > 10000 µg/mL
MFC (Candida parapsilosis): > 10000 µg/mL
MFC (Nakaseomyces glabratus): 10000 µg/mL (≈ 13.2 mM)
MFC [1]: 10000 µg/mL (≈ 13.2 mM)
MFC (Clavispora lusitaniae): > 10000 µg/mL
MFC ([Candida] auris): 10000 µg/mL (≈ 13.2 mM)

C=CS(=O)(=O)Nc1cc(C(=O)NCc2cn([C@H]3O[C@@H](C)[C@@H](O)[C@@H](O)[C@@H]3O)nn2)cc(C(=O)NCc2cn([C@H]3O[C@@H](C)[C@@H](O)[C@H](O)[C@@H]3O)nn2)c1
MFC (Candida albicans): > 10000 µg/mL
MFC (Candida parapsilosis): > 10000 µg/mL
MFC (Nakaseomyces glabratus): > 10000 µg/mL
MFC [1]: > 10000 µg/mL
MFC (Clavispora lusitaniae): > 10000 µg/mL
MFC ([Candida] auris): > 10000 µg/mL

CCC(=O)Nc1cc(C(=O)NCc2cn([C@@H]3O[C@H](CO)[C@H](O)[C@H](O)[C@H]3O)nn2)cc(C(=O)NCc2cn([C@@H]3O[C@H](CO)[C@H](O)[C@@H](O)[C@@H]3O)nn2)c1
MFC (Nakaseomyces glabratus): 10000 µg/mL (≈ 13.9 mM)
MFC [1]: 10000 µg/mL (≈ 13.9 mM)

C=CC(=O)Nc1cc(C(=O)NCc2cn([C@H]3O[C@H](CO)[C@@H](O)[C@H](O)[C@@H]3O)nn2)cc(C(=O)NCc2cn([C@H]3O[C@H](CO)[C@@H](O)[C@H](O)[C@@H]3O)nn2)c1
MFC (Candida albicans): > 10000 µg/mL
MFC (Candida parapsilosis): > 10000 µg/mL
MFC (Nakaseomyces glabratus): > 10000 µg/mL
MFC [1]: > 10000 µg/mL
MFC (Clavispora lusitaniae): > 10000 µg/mL
